The subject of test [1] is HCT-116 cells. The experiment in a line: Test for inhibiting sphere-forming ability of cancer cells (in the presence of BSA). The note with it: HCT-116 spheres, non-adherent, 5% BSA, 4 days, CellTiter-Glo, read-out: IC50 (Sphere IC50 value; concentration for 50% inhibition of cell proliferation). It counts as cell-based. As for the experimental part: HCT-116 cells were available from the American Type Culture Collection (ATCC). HCT-116 cells were cultured at 37° C. and 5% CO2 using the McCoy's 5a medium containing 10% fetal bovine serum (FBS) and 1% penicillin/streptomycin. HCT-116 cells were seeded in a 384 Well Black Clear Bottom Ultra-Low Attachment Microplate (Corning Cat. No. 3827) in an amount of 350-800 cells/well using the DMEM/F12 medium containing 2% B27 supplement (GIBCO), 20 ng/mL epidermal growth factor (EGF) (peprotech), 10 ng/mL basic fibroblast growth factor (bFGF) (peprotech), 5 μg/mL insulin (Sigma), 5% bovine serum albumin (BSA), and 1% penicillin/streptomycin. The test compounds were added into each well to adjust the final concentration of DMSO to 0.1%, and the cells were cultured for 4 days. The number of viable cells in each well was then measured with CellTiter-Glo® Luminescent Cell Viability Assay (Promega) to calculate the concentration of each test compound for 50% inhibition of cell proliferation (Sphere IC50 value; μmol/L).
The experiment of Test Example 2 was performed for the compounds of each Example. The concentrations of each test compound for 50% inhibition of cell profeliration (Sphere IC50 value; μmol/L) are shown in the following Table.

Test [2] has as its system HCT-116 cells. The test is described as follows: Test for inhibiting sphere-forming ability of cancer cells. It counts as cell-based. Conditions: HCT-116 spheres, non-adherent, serum-free, 4 days, CellTiter-Glo, read-out: IC50 (Sphere IC50 value; concentration for 50% inhibition of cell proliferation). As for the experimental part: The reliable methods established for measuring the self-renewal ability of cells which is one of the CSC's properties include a method for measuring the sphere-forming ability of cancer cells in non-adherent condition in the absence of serum (Cancer Res 65, 5506-5511 (2005)). HCT-116 cells were available from the American Type Culture Collection (ATCC). HCT-116 cells were cultured at 37° C. and 5% CO2 using the McCoy's 5a medium containing 10% fetal bovine serum (FBS) and 1% penicillin/streptomycin. HCT-116 cells were seeded in a 384 Well Black Clear Bottom Ultra-Low Attachment Microplate (Corning Cat. No. 3827) in an amount of 350-800 cells/well using the DMEM/F12 medium containing 2% B27 supplement (GIBCO), 20 ng/mL epidermal growth factor (EGF) (peprotech), 10 ng/mL basic fibroblast growth factor (bFGF) (peprotech), 5 μg/mL insulin (Sigma), and 1% penicillin/streptomycin. The test compounds were added into each well to adjust the final concentration of DMSO to 0.1%, and the cells were cultured for 4 days. The number of viable cells in each well was then measured with CellTiter-Glo® Luminescent Cell Viability Assay (Promega) to calculate the concentration of each test compound for 50% inhibition of cell proliferation (Sphere IC50 value; μmol/L).
The experiment of Test Example 1 was performed for the compounds of each Example. The concentrations of each test compound for 50% inhibition of cell profeliration (Sphere IC50 value; μmol/L) are shown in the following Table.

Counter-ions that a name gives are not always drawn.

Regarding `O=C(Nc1cn(Cc2cc(F)cc(Cl)c2)cn1)c1cnc2c(c1)CCNC2` [Example 52, N-[1-(3-chloro-5-fluorobenzyl)-1H-imidazol-4-yl]-5,6,7,8-tetrahydro-1,7-naphthyridine-3-carboxamide], the IC50 in test [1] (Homo sapiens, HCT-116, 96 h) was 60 nM; in test [2] (Homo sapiens, 96 h), 60 nM.

For `O=C(Nc1cn(Cc2ccc3ccccc3c2)cn1)c1cnc2c(c1)CCNC2` [Example 66], the IC50 in test [1] worked out at 5490 nM; in test [2] it was 700 nM.

Turning to `O=C(Nc1cn(Cc2cccc(Cl)c2)cn1)c1cnc2c(c1)CCNC2` [Example 43], the IC50 in test [1] (Homo sapiens, HCT-116, 96 h) is 540 nM; in test [2] (Homo sapiens, 96 h) it was 720 nM.

As to `O=C(Nc1cn(CCCc2ccccc2)cn1)c1cnc2c(c1)CCNC2` [Example 69], the IC50 came to 680 nM in test [1] and 760 nM in test [2].

Regarding `Nc1cccc(Cn2cnc(NC(=O)c3cnc4c(c3)CCNC4)c2)c1` [Example 67], in test [1], the IC50 amounted to 8520 nM.

Take `O=C(/C=C/c1ccc2c(c1)OCO2)Nc1cn(Cc2cccc(Cl)c2)cn1` [Example 38]: the IC50 in test [1] (Homo sapiens, HCT-116, 96 h) came out at 90 nM; in test [2] (Homo sapiens, 96 h), 70 nM.

As to `O=C(Nc1cc2c(cn1)CNCC2)c1cn(Cc2ccc(F)c(F)c2)cn1` [Example 35, 1-(3,4-difluorobenzyl)-N-(5,6,7,8-tetrahydro-2,7-naphthyridin-3-yl)-1H-imidazole-4-carboxamide], the IC50 came out at 50 nM in test [1] (Homo sapiens, HCT-116, 96 h) and 80 nM in test [2] (Homo sapiens, 96 h).

With `COc1cc(Cn2cnc(NC(=O)c3ccc4c(c3)CCNC4)c2)cc(OC)c1` [Example 94], the 50% inhibitory concentration (IC50) came out at 6110 nM in test [1] (Homo sapiens, HCT-116, 96 h) and 6990 nM in test [2] (Homo sapiens, 96 h).

For `N#Cc1cccc(Cn2cnc(NC(=O)c3cnc4c(c3)CCNC4)c2)c1` [Example 63], the IC50 in test [1] is 710 nM; in test [2] it was 3590 nM.

As to `O=C(Nc1cc2c(cc1F)CNCC2)c1cn(Cc2cc(F)c(F)c(F)c2)cn1` [Example 1, N-(7-fluoro-1,2,3,4-tetrahydroisoquinolin-6-yl)-1-(3,4,5-trifluorobenzyl)-1H-imidazole-4-carboxamide], the IC50 was 170 nM in test [1] (Homo sapiens, HCT-116, 96 h) and 80 nM in test [2] (Homo sapiens, 96 h).

Consider `O=C(Nc1ccc2c(c1)CCNC2)c1cn(Cc2cc(F)c(F)c(F)c2)cn1` [Example 4, N-(1,2,3,4-tetrahydroisoquinolin-6-yl)-1-(3,4,5-trifluorobenzyl)-1H-imidazole-4-carboxamide], for which the IC50 in test [1] (Homo sapiens, HCT-116, 96 h) came out at 560 nM; in test [2] (Homo sapiens, 96 h), 660 nM.

Consider `O=C(/C=C/c1ccc2c(c1)CCNC2)Nc1cn(Cc2cc(F)c(F)c(F)c2)cn1` [Example 112], for which the IC50 in test [1] (Homo sapiens, HCT-116, 96 h) was 6340 nM; in test [2] (Homo sapiens, 96 h), 710 nM.

Take `O=C(Nc1cn(Cc2cccc(C(F)(F)F)c2)cn1)c1ccc2c(c1)CCC1(C2)OCCO1` [Example 109, N-{1-[3-(Trifluoromethyl)benzyl]-1H-imidazol-4-yl}-3′,4′-dihydro-1′H-spiro[1,3-dioxolane-2,2′-naphthalene]-6′-carboxamide]: the IC50 in test [2] (Homo sapiens, 96 h) amounted to 7070 nM.

`O=C1CCc2cc(C(=O)Nc3cn(Cc4cc(F)c(F)c(F)c4)cn3)ccc2N1` [Example 37]: the IC50 in test [1] (Homo sapiens, HCT-116, 96 h) was 590 nM; in test [2] (Homo sapiens, 96 h), 90 nM.

`COc1cc(Cn2cnc(NC(=O)c3ccc4c(c3)CCNC4)c2)cc(C(F)(F)F)c1` [Example 98]: the IC50 in test [1] (Homo sapiens, HCT-116, 96 h) worked out at 510 nM; in test [2] (Homo sapiens, 96 h), 500 nM.

For the molecule `O=C(Nc1cn(Cc2ccc(C(F)(F)F)cc2)cn1)c1cnc2c(c1)CCNC2` [Example 64, N-{1-[4-(trifluoromethyl)benzyl]-1H-imidazol-4-yl}-5,6,7,8-tetrahydro-1,7-naphthyridine-3-carboxamide], the IC50 in test [1] (Homo sapiens, HCT-116, 96 h) worked out at 170 nM; in test [2] (Homo sapiens, 96 h) it was 90 nM.

As to `O=C(Nc1cn(Cc2cc(F)cc(F)c2)cn1)c1ccc2c(c1)CCNC2` [Example 74], the IC50 in test [1] and in test [2] was 490 nM each time.

Regarding `Cc1nc(NC(=O)c2ccc3c(c2)CCNC3)cn1Cc1cccc(C(F)(F)F)c1` [Example 22], the IC50 in test [1] (Homo sapiens, HCT-116, 96 h) worked out at 580 nM; in test [2] (Homo sapiens, 96 h), 200 nM.

Consider `O=C(Nc1cn(Cc2cc(F)c(F)c(F)c2)cn1)c1ccc2c(c1F)CCNC2` [Example 14], for which the concentration for half-maximal inhibition (IC50) in test [1] (Homo sapiens, HCT-116, 96 h) turned out to be 460 nM; in test [2] (Homo sapiens, 96 h) it was 430 nM.

Regarding `O=C(Nc1cn(Cc2cccc(O)c2)cn1)c1ccc2c(c1)CCNC2` [Example 107], in test [1] (Homo sapiens, HCT-116, 96 h), the IC50 came to 6340 nM.

With `O=C(Nc1cn(Cc2ccccc2C(F)(F)F)cn1)c1cnc2c(c1)CCNC2` [Example 62], the IC50 came to 590 nM in test [1] and 710 nM in test [2].

As for `O=C1Nc2cc(C(=O)Nc3cn(Cc4cccc(C(F)(F)F)c4)cn3)cnc2CO1` [Example 24], the IC50 in test [1] (Homo sapiens, HCT-116, 96 h) is 670 nM; in test [2] (Homo sapiens, 96 h), 520 nM.

For `O=C(Nc1cn(Cc2cccc(C(F)(F)F)c2)cn1)c1ccc2c(c1)CCNC2` [Example 26], the IC50 in test [1] (Homo sapiens, HCT-116, 96 h) stood at 100 nM; in test [2] (Homo sapiens, 96 h), 80 nM.

For the molecule `O=C(Nc1cn(Cc2ccc(F)c(F)c2)cn1)c1ccc2c(c1)CCNC2` [Example 73], the 50% inhibitory concentration (IC50) in test [1] was 540 nM; in test [2] it was 610 nM.

In the case of `O=C(Nc1cn(Cc2ccc(Cl)cc2)cn1)c1cnc2c(c1)CCNC2` [Example 65, N-[1-(4-chlorobenzyl)-1H-imidazol-4-yl]-5,6,7,8-tetrahydro-1,7-naphthyridine-3-carboxamide], the IC50 in test [1] (Homo sapiens, HCT-116, 96 h) came out at 380 nM; in test [2] (Homo sapiens, 96 h), 80 nM.

Turning to `O=C(Nc1cn(Cc2cccc(C(F)(F)F)c2)cn1)c1ccc2c(c1)CCCN2` [Example 27], the IC50 in test [1] (Homo sapiens, HCT-116, 96 h) is 6010 nM; in test [2] (Homo sapiens, 96 h) it was 690 nM.

For `O=C(/C=C/c1ccc2c(c1)OCCO2)Nc1cn(Cc2cccc(Cl)c2)cn1` [Example 39], the IC50 in test [1] (Homo sapiens, HCT-116, 96 h) was 790 nM; in test [2] (Homo sapiens, 96 h) it was 910 nM.

For `Cc1cccc(Cn2cnc(NC(=O)c3ccc4c(c3)CCNC4)c2)c1` [Example 80], the IC50 in test [1] was determined as 600 nM; in test [2], 620 nM.

For `Cc1ccc(Cn2cnc(NC(=O)c3ccc4c(c3)CCNC4)c2)cc1` [Example 81], the half-inhibitory concentration (IC50) in test [1] was 6220 nM; in test [2], 950 nM.

For the molecule `CN1CCc2cc(C(=O)Nc3cn(Cc4cccc(C(F)(F)F)c4)cn3)ccc2C1` [Example 30, 2-Methyl-N-{1-[3-(trifluoromethyl)benzyl]-1H-imidazol-4-yl}-1,2,3,4-tetrahydroisoquinoline-6-carboxamide], the IC50 in test [2] (Homo sapiens, 96 h) stood at 6160 nM.

For the molecule `O=C(Nc1cn(Cc2cc(F)c(F)c(F)c2)cn1)c1cc2c(cn1)CNCC2` [Example 8, N-[1-(3,4,5-trifluorobenzyl)-1H-imidazol-4-yl]-5,6,7,8-tetrahydro-2,7-naphthyridine-3-carboxamide], the IC50 in test [1] (Homo sapiens, HCT-116, 96 h) came out at 440 nM; in test [2] (Homo sapiens, 96 h), 90 nM.

Consider `O=C(Nc1cn(CCC2CCCCC2)cn1)c1ccc2c(c1)CCNC2` [Example 86], for which the IC50 in test [1] is 560 nM; in test [2], 470 nM.

For the molecule `O=C(Nc1cn(Cc2cccc(C(F)(F)F)c2)cn1)c1cc2c(s1)CNCC2` [Example 17], the IC50 came to 720 nM in test [1] (Homo sapiens, HCT-116, 96 h) and 620 nM in test [2] (Homo sapiens, 96 h).

Consider `CC(=O)N1CCc2cc(C(=O)Nc3cn(Cc4cccc(C(F)(F)F)c4)cn3)ccc2C1` [Example 108, 2-Acetyl-N-{1-[3-(trifluoromethyl)benzyl]-1H-imidazol-4-yl}-1,2,3,4-tetrahydroisoquinoline-6-carboxamide trifluoroacetate], for which the concentration for half-maximal inhibition (IC50) in test [2] (Homo sapiens, 96 h) amounted to 6630 nM.

For `O=C(Nc1cn(Cc2cccc(C(F)(F)F)c2)cn1)c1nc2c(s1)CCNC2` [Example 20], the IC50 in test [2] (Homo sapiens, 96 h) amounted to 65200 nM.

On to `O=C(Nc1cn(Cc2cccc(C(F)(F)F)c2)cn1)c1ccc2c(c1)CNC2` [Example 33], for which the IC50 in test [2] (Homo sapiens, 96 h) came to 1480 nM.

In the case of `CC1(C)CNCc2ccc(C(=O)Nc3cn(Cc4cccc(C(F)(F)F)c4)cn3)cc21` [Example 32], the IC50 in test [2] (Homo sapiens, 96 h) amounted to 72300 nM.

For `O=C(Nc1cn(Cc2cccc(C(F)(F)F)c2)cn1)c1ccc2c(c1)CCOC2` [Example 23], the half-maximal inhibitory concentration (IC50) in test [2] (Homo sapiens, 96 h) worked out at 4940 nM.

On to `O=C(Nc1cn(CC2CCOCC2)cn1)c1cnc2c(c1)CCNC2` [Example 118], for which the IC50 in test [1] was found to be 6180 nM.

For `COc1ccc(Cn2cnc(NC(=O)c3ccc4c(c3)CCNC4)c2)cc1` [Example 84], the IC50 in test [2] worked out at 6780 nM.
